Measured values taken from ChEMBL document CHEMBL6092178, “Discovery of a novel KV7.2/7.3 channels agonist for the treatment of neuropathic pain” (Eur J Med Chem, 2024).
pEC50: −log10 of the molar value. Activity calls are given as the source filed them.

Experiments:
[1] = molecular target: Voltage-gated potassium channel, KQT; KCNQ2(Kv7.2)/KCNQ3(Kv7.3) (Homo sapiens, UniProt O43525+O43526); test: Agonist activity at human KCNQ2/3 transfected in human HEK293 cells incubated for 30 mins by fluorimetric assay; type: cell-based
[2] = system: Rattus norvegicus; test: Antinociceptive activity against formalin-induced pain in male Sprague-Dawley rat assessed as reduction in nociceptive response at 40 mg/kg, IG pretreated for 5 mins followed by formalin challenge and measured for first 9 mins (phase I); type: functional, organism-based; settings: time 14.0 min
[3] = system: Mus musculus; test: Induction of motor coordination impairment in mouse at 20 mg/kg, IG measured upto 120 mins by rotarod method; type: functional, organism-based
[4] = system: Rattus norvegicus; test: Antiallodynic activity in spinal nerve ligation-induced neuropathic pain male Sprague-Dawley rat model assessed as mechanical withdrawal threshold at 40 mg/kg, IG pretreated with compound for 1 hr and measured on day 15 after surgery; type: functional, organism-based; settings: time 15.0 day
[5] = system: Rattus norvegicus; test: Antinociceptive activity against formalin-induced pain in male Sprague-Dawley rat assessed as reduction in nociceptive response at 40 mg/kg, IG pretreated for 5 mins followed by formalin challenge and measured for 10 to 60 mins (phase II); type: functional, organism-based; settings: time 15-65 min

Sequence of Voltage-gated potassium channel, KQT; KCNQ2(Kv7.2)/KCNQ3(Kv7.3) (O43526 whole entry): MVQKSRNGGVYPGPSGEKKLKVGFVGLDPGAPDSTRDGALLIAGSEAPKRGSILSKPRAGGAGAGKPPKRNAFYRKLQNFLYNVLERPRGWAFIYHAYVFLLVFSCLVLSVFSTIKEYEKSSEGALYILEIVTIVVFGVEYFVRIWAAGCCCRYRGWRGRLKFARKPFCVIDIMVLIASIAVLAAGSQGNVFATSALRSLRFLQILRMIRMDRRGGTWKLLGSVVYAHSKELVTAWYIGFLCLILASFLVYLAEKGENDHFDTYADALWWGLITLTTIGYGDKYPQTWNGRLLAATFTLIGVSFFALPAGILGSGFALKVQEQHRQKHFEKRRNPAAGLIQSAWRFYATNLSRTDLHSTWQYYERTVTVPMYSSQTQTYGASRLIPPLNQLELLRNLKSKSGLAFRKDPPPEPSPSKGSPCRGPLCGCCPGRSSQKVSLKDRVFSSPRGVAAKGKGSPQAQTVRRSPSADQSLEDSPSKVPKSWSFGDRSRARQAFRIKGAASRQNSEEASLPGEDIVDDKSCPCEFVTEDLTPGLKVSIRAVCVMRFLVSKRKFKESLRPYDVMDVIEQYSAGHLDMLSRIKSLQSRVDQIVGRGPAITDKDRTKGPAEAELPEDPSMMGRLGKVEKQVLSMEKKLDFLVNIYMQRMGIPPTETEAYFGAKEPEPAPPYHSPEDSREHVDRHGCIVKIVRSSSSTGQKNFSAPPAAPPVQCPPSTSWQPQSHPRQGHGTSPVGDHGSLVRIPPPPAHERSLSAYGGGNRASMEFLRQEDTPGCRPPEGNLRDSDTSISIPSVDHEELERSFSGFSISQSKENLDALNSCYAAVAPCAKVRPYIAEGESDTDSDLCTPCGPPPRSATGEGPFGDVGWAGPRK
Sequence of Voltage-gated potassium channel, KQT; KCNQ2(Kv7.2)/KCNQ3(Kv7.3) (O43525 whole entry): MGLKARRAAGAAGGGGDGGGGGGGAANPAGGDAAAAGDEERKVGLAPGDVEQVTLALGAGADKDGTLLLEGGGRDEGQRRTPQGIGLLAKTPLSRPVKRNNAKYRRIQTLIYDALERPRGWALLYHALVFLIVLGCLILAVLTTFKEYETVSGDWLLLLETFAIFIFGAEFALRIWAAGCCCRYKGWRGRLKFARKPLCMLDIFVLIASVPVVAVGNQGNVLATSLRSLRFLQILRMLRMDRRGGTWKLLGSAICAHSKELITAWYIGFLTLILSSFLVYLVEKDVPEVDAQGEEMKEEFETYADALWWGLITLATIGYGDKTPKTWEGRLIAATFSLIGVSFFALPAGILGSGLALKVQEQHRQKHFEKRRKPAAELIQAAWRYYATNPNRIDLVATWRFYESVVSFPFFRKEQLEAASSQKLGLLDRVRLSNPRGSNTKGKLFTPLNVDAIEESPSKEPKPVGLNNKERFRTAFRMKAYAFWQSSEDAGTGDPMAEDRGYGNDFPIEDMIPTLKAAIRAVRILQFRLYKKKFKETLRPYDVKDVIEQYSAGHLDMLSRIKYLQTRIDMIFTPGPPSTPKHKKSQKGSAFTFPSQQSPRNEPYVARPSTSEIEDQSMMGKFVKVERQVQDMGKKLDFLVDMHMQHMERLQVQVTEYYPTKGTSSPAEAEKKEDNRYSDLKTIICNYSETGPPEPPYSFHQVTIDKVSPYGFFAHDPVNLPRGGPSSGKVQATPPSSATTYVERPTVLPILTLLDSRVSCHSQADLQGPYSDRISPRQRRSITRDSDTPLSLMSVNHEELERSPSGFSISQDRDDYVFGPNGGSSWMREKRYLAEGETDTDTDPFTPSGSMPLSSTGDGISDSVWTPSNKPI

SMILES | pEC50 [1] | further results
Nc1ccc(OCc2ccc(F)cc2)nc1NC(=O)C1CCCC1 | 3.88 | –
CC(C)C[C@H](CN)CC(=O)O | – | Activity [2]: inactive; Activity [3]: inactive; Activity [4]: Active; Activity [5]: Active
CCOC(=O)Nc1ccc(OCc2ccc(F)cc2)nc1NC(C)=O | 5.21 | –
CC(=O)Nc1nc(OC(C)c2ccc(F)cc2)ccc1N (centres undefined) | 4.72 | –
CC(=O)Nc1ccc(OCc2ccc(F)cc2)nc1NC(C)=O | 5.12 | –
CC(=O)Nc1nc(OCc2cccc3ccccc23)ccc1N | 3.66 | –
